Test results reported in US6699879B1, “Phenyl urea and phenyl thiourea derivatives as orexin receptor antagonists” (SmithKline Beecham p.l.c., priority 1999, dated 2004).
No end group written: not given here.

Key:
orexin receptors = assay: Rat sleep/EEG studies, central administration; assay type: in vivo; conditions: central administration at the onset of the normal sleep period; largely at the expense of paradoxical sleep and slow wave sleep 2
Source text: Therefore antagonists of its receptor may be useful in the treatment of sleep disorders including insomnia.

freely-feeding rats = conditions: central administration, 4 hour time period; cited from earlier work

In the case of “orexin-A: ligand for the orexin-1 receptor, an agonist of the orexin receptors; 33-residue peptide, sequence in the 1st table (QPLPDCCRQKTCSCRLYELLHGAGNHAAGILTL-NH2; not fully specified (residue 1, bridges); ends and bridges not checked; UniProt O43612 34-66, looked up)”, the effect on arousal (orexin receptors) is listed as “dose-related increase in arousal” and the “increase in food intake over control rats receiving vehicle” value (freely-feeding rats) is listed as “approximately four-fold”.
